How the values were obtained:
[1] = molecular target: T1, human recombinant HDAC1 (Homo sapiens, UniProt Q13547); test: HDAC1 enzyme activity inhibition (HDAC1 Fluorimetric Drug Discovery Assay Kit, in vitro); type: biochemical; conditions: samples at 100, 1000 and 10000 nM
T1 construct: purchased Enzolifesciences BML-SE456
How it was run: (§1)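 Recombinant human HDAC1 or HDAC6 (0.3 μg) with Fluor de Lys-SIRT1 substrate at […], 60 min at 37 °C, then developer 30 min; fluorescence Ex 360/Em 460. Compounds at 100–10000 nM for HDAC1 and 0.1–1000 nM for HDAC6; IC50 calculated.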

[2] = molecular target: T2, human recombinant HDAC6 (Homo sapiens, UniProt Q9UBN7); test: HDAC6 enzyme activity inhibition (fluorimetric, in vitro); type: biochemical; conditions: samples at 0.1, 1, 10, 100 and 1000 nM
T2 construct: purchased Calbiochem 382180
T2 sequence (Q9UBN7 1-1215): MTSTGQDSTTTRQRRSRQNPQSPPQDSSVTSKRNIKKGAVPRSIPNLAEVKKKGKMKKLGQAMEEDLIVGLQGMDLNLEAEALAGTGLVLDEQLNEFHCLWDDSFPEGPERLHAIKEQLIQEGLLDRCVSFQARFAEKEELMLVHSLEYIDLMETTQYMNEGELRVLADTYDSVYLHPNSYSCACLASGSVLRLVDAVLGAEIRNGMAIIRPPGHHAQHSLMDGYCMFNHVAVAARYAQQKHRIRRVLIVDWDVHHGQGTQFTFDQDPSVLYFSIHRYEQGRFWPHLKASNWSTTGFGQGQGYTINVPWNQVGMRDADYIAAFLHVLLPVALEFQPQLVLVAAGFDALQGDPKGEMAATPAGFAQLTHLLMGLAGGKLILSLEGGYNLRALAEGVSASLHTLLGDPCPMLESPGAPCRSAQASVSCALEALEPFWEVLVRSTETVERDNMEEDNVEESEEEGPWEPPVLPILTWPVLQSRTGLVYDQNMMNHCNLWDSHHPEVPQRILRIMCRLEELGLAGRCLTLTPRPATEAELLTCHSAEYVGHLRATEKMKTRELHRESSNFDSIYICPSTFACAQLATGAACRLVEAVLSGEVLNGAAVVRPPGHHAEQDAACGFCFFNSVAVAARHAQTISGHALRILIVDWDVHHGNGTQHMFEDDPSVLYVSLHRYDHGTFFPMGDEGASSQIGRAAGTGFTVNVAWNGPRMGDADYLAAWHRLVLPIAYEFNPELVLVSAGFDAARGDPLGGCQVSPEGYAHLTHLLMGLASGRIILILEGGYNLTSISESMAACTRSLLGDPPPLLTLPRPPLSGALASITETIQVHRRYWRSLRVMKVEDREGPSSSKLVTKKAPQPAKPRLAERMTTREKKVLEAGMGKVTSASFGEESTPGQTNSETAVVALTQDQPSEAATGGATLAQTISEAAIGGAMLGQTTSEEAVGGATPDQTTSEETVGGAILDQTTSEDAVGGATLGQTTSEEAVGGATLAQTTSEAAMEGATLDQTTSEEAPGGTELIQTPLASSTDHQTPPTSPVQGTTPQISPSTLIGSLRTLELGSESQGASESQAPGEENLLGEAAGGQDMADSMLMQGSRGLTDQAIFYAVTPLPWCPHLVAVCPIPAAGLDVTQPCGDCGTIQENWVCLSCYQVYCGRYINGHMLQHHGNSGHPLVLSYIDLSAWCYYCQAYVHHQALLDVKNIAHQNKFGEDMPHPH
How it was run: as §1

T1 sequence (Q13547 whole entry): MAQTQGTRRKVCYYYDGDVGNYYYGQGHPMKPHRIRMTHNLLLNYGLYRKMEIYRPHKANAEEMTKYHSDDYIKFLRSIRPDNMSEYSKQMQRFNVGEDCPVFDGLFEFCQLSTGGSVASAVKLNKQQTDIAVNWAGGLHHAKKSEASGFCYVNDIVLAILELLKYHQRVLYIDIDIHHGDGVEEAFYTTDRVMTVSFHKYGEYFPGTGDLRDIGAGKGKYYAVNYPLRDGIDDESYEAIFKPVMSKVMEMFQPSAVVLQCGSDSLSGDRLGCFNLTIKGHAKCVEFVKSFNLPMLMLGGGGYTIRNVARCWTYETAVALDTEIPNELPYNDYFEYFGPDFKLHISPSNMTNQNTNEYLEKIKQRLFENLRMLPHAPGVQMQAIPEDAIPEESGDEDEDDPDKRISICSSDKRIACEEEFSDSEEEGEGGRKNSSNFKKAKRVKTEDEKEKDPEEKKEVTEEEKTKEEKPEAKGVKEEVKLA

N=S1(=O)CCC(NC(=O)N(Cc2ccc(-c3nnc(C(F)F)o3)cc2F)c2ccccc2)CC1 (centres unmarked) [Compound 59, 1-(4-(5-(difluoromethyl)-1,3,4-oxadiazol-2-yl)-2-fluorobenzyl)-3-(1-imino-1-oxidotetrahydro-2H-thiopyran-4-yl)-1-phenylurea]
IC50 [1]: > 10 µM
IC50 [2]: 116 nM

N=S1(=O)CCN(c2c(N(Cc3ccc(-c4nnc(C(F)F)o4)cc3F)c3ccccc3)c(=O)c2=O)CC1 [Compound 60, 3-((4-(5-(difluoromethyl)-1,3,4-oxadiazol-2-yl)-2-fluorobenzyl)(phenyl)amino)-4-(1-imino-1-oxidothiomorpholino)cyclobut-3-en-1,2-dione]
IC50 [1]: > 10 µM
IC50 [2]: 26.7 nM

N=S1(=O)CCN(c2c(N(Cc3ncc(-c4nnc(C(F)F)o4)cc3F)c3ccccc3)c(=O)c2=O)CC1 [Compound 61, 3-(((5-(5-(difluoromethyl)-1,3,4-oxadiazol-2-yl)-3-fluoropyridin-2-yl)methyl)(phenyl)amino)-4-(1-imino-1-oxidothiomorpholino)cyclobut-3-en-1,2-dione]
IC50 [1]: > 10 µM
IC50 [2]: 29.8 nM

N=S1(=O)CCN(C(=O)N(Cc2ccc(-c3nnc(C(F)F)o3)cn2)c2ccc(F)cc2)CC1 [Compound 62, N-[[5-[5-(difluoromethyl)-1,3,4-oxadiazol-2-yl]-2-pyridyl]methyl]-N-(4-fluorophenyl)-1-imino-1-oxo-1,4-thiazinan-4-carboxamide]
IC50 [1]: > 10 µM
IC50 [2]: 88.4 nM

N=S1(=O)CCN(C(=O)N(Cc2ccc(-c3nnc(C(F)F)o3)cc2F)c2ccc(F)cc2)CC1 [Compound 63, N-[[4-[5-(difluoromethyl)-1,3,4-oxadiazol-2-yl]-2-fluoro-phenyl]methyl]-N-(4-fluorophenyl)-1-imino-1-oxo-1,4-thiazinan-4-carboxamide]
IC50 [1]: > 10 µM
IC50 [2]: 99.6 nM

CC1CN(C(=O)N(Cc2ccc(-c3nnc(C(F)F)o3)cn2)c2ccc(F)cc2)CC(C)S1(=N)=O (centres unmarked) [Compound 64, N-[[5-[5-(difluoromethyl)-1,3,4-oxadiazol-2-yl]-2-pyridyl]methyl]-N-(4-fluorophenyl)-1-imino-2,6-dimethyl-1-oxo-1,4-thiazinan-4-carboxamide]
IC50 [1]: > 10 µM
IC50 [2]: 123 nM

CC1CN(C(=O)N(Cc2ccc(-c3nnc(C(F)F)o3)cc2F)c2ccc(F)cc2)CC(C)S1(=N)=O (centres unmarked) [Compound 65, N-[[4-[5-(difluoromethyl)-1,3,4-oxadiazol-2-yl]-2-fluoro-phenyl]methyl]-N-(4-fluorophenyl)-1-imino-2,6-dimethyl-1-oxo-1,4-thiazinan-4-carboxamide]
IC50 [1]: > 10 µM
IC50 [2]: 105 nM

N=S1(=O)CCN(C(=O)N(Cc2ccc(-c3nnc(C(F)F)o3)cc2F)c2cccnc2)CC1 [Compound 66, N-[[4-[5-(difluoromethyl)-1,3,4-oxadiazol-2-yl]-2-fluoro-phenyl]methyl]-1-imino-1-oxo-N-(3-pyridyl)-1,4-thiazinan-4-carboxamide]
IC50 [1]: > 10 µM
IC50 [2]: 90.2 nM

CC(=O)N1CCC(c2ccc(N(Cc3ccc(-c4nnc(C(F)F)o4)cc3F)C(=O)N3CCS(=N)(=O)CC3)cc2)CC1 [Compound 67]
IC50 [1]: > 10 µM
IC50 [2]: 347 nM

N=S1(=O)C[C@@H]2C[C@H]1CN2C(=O)N(Cc1ccc(-c2nnc(C(F)F)o2)cc1F)c1ccccc1 (stereo partly drawn) [Compound 68, (1S,4S)—N-[[4-[5-(difluoromethyl)-1,3,4-oxadiazol-2-yl]-2-fluoro-phenyl]methyl]-2-imino-2-oxo-N-phenyl-2lambda6-thia-5-azabicyclo[2.2.1]heptan-5-carboxamide]
IC50 [1]: > 10 µM
IC50 [2]: 39 nM

N=S1(=O)CCN(S(=O)(=O)N(Cc2ccc(-c3nnc(C(F)F)o3)cc2F)c2cc(F)ccc2F)CC1 [Compound 69, N-[[4-[5-(difluoromethyl)-1,3,4-oxadiazol-2-yl]-2-fluoro-phenyl]methyl]-N-(2,5-difluorophenyl)-1-imino-1-oxo-1,4-thiazinan-4-sulfonamide]
IC50 [1]: > 10 µM
IC50 [2]: 124 nM

N=S1(=O)CCN(S(=O)(=O)N(Cc2ccc(-c3nnc(C(F)F)o3)cc2F)c2cccc(Cl)c2)CC1 [Compound 70, N-(3-chlorophenyl)-N-[[4-[5-(difluoromethyl)-1,3,4-oxadiazol-2-yl]-2-fluoro-phenyl]methyl]-1-imino-1-oxo-1,4-thiazinan-4-sulfonamide]
IC50 [1]: > 10 µM
IC50 [2]: 52.2 nM

N=S1(=O)CCN(S(=O)(=O)N(Cc2ccc(-c3nnc(C(F)F)o3)cn2)c2cccc(Cl)c2)CC1 [Compound 71, N-(3-chlorophenyl)-N-[[5-[5-(difluoromethyl)-1,3,4-oxadiazol-2-yl]-2-pyridyl]methyl]-1-imino-1-oxo-1,4-thiazinan-4-sulfonamide]
IC50 [1]: > 10 µM
IC50 [2]: 31.7 nM

COc1cccc(N(Cc2ccc(-c3nnc(C(F)F)o3)cn2)S(=O)(=O)N2CCS(=N)(=O)CC2)c1 [Compound 72, N-[[5-[5-(difluoromethyl)-1,3,4-oxadiazol-2-yl]-2-pyridyl]methyl]-1-imino-N-(3-methoxyphenyl)-1-oxo-1,4-thiazinan-4-sulfonamide]
IC50 [1]: > 10 µM
IC50 [2]: 78.8 nM

COc1cccc(N(Cc2ccc(-c3nnc(C(F)F)o3)cc2F)S(=O)(=O)N2CCS(=N)(=O)CC2)c1 [Compound 73, N-[[4-[5-(difluoromethyl)-1,3,4-oxadiazol-2-yl]-2-fluoro-phenyl]methyl]-1-imino-N-(3-methoxyphenyl)-1-oxo-1,4-thiazinan-4-sulfonamide]
IC50 [1]: > 10 µM
IC50 [2]: 72.5 nM

N=S1(=O)CCN(CCS(=O)(=O)N(Cc2ccc(-c3nnc(C(F)F)o3)cc2F)c2ccccc2)CC1 [Compound 74, N-[[4-[5-(difluoromethyl)-1,3,4-oxadiazol-2-yl]-2-fluoro-phenyl]methyl]-2-(1-imino-1-oxo-1,4-thiazinan-4-yl)-N-phenyl-ethanesulfonamide]
IC50 [1]: > 10 µM
IC50 [2]: 63.6 nM

CS(=N)(=O)C1CCN(C(=O)N(Cc2ccc(-c3nnc(C(F)F)o3)cc2F)c2ccccc2)CC1 (centres unmarked) [Compound 75, N-[[4-[5-(difluoromethyl)-1,3,4-oxadiazol-2-yl]-2-fluoro-phenyl]methyl]-4-(methylsulfonimidoyl)-N-phenyl-piperidin-1-carboxamide]
IC50 [1]: > 10 µM
IC50 [2]: 96.3 nM

N=S1(=O)CCN(S(=O)(=O)N(Cc2ccc(-c3nnc(C(F)F)o3)cn2)c2ccc(F)cc2)CC1 [Compound 76, N-[[5-[5-(difluoromethyl)-1,3,4-oxadiazol-2-yl]-2-pyridyl]methyl]-N-(4-fluorophenyl)-1-imino-1-oxo-1,4-thiazinan-4-sulfonamide]
IC50 [1]: > 10 µM
IC50 [2]: 39.9 nM

N=S1(=O)CCN(S(=O)(=O)N(Cc2ncc(-c3nnc(C(F)F)o3)cc2F)c2ccc(F)cc2)CC1 [Compound 77, N-[[5-[5-(difluoromethyl)-1,3,4-oxadiazol-2-yl]-3-fluoro-2-pyridyl]methyl]-N-(4-fluorophenyl)-1-imino-1-oxo-1,4-thiazinan-4-sulfonamide]
IC50 [1]: > 10 µM
IC50 [2]: 51.6 nM

N=S1(=O)CCN(S(=O)(=O)N(Cc2ccc(-c3nnc(C(F)F)o3)cc2F)c2ccc(F)cc2)CC1 [Compound 78, N-[[4-[5-(difluoromethyl)-1,3,4-oxadiazol-2-yl]-2-fluoro-phenyl]methyl]-N-(4-fluorophenyl)-1-imino-1-oxo-1,4-thiazinan-4-sulfonamide]
IC50 [1]: > 10 µM
IC50 [2]: 78.7 nM

O=C(N=S1(=O)CCN(C(=O)N(Cc2ccc(-c3nnc(C(F)F)o3)nn2)c2cccc(F)c2)CC1)OCc1ccccc1 [Compound 79, Benzyl N-[4-[[6-[5-(difluoromethyl)-1,3,4-oxadiazol-2-yl]pyridazin-3-yl]methyl-(3-fluorophenyl)carbamoyl]-1-oxo-1,4-thiazinan-1-ylidene]carbamate]
IC50 [1]: > 10 µM
IC50 [2]: 87.1 nM

N=S1(=O)CCN(C(=O)N(Cc2ccc(-c3nnc(C(F)F)o3)nn2)c2cccc(F)c2)CC1 [Compound 80, N-[[6-[5-(difluoromethyl)-1,3,4-oxadiazol-2-yl]pyridazin-3-yl]methyl]-N-(3-fluorophenyl)-1-imino-1-oxo-1,4-thiazinan-4-carboxamide]
IC50 [1]: > 10 µM
IC50 [2]: 146 nM

Source: patent US20260125370A1, “SULFOXIMINE COMPOUNDS AS HISTONE DEACETYLASE 6 INHIBITOR, AND PHARMACEUTICAL COMPOSITION COMPRISING THE SAME” (CHONG KUN DANG PHARMACEUTICAL CORP., priority 2022, published 2026)
